According to patent US20240174716A1, “TRANSPORTER PEPTIDES AND APPLICATION THEREOF” (Vacino Biotech Co. Ltd, priority 2022, published 2024):
Values joined by “and” are separate entries in the source; they are usually repeats but may differ in a detail not shown here. Equal entries are not always repeated. Where two headings read alike, the source gives them in different places. Peptide text beside a SMILES is read from it.

Key:
[1] = In vivo imaging system (IVIS) analysis of fluorescent dye-conjugated transporter peptides; parameters: species or system BALB/c mice; conditions: for quantified fluorescence signal in mouse brain: after 0.5 hour of the injection; for half-life: BALB/c, mouse, brain, intravenous, read-out: half-life of the fluorescence in the mouse brains (converted)
Protocol: In this Example, the transporter peptide disclosed herein was administered to mice, and the distribution of the transporter peptide in the mice was detected with an in vivo fluorescence imaging system (IVIS).
One (1) mg of each transporter peptides PT-001 (SEQ ID NO: 2), PT-025 (SEQ ID NO: 11), PT-034 (SEQ ID NO: 19), and PT-031 (SEQ ID NO: 17) was dissolved in 1 mL of buffer containing 50 mM sodium bicarbonate/bicarbonate to a final concentration of 1 mg/mL. […] of 10 mg/mL fluorescent dye (VivoTag 680 XL, PerkinElmer, USA) was added to the 1 mL transporter peptide solution, and the mixture was incubated at room temperature in the dark for 1 hour. The dye-labeled product was filtered with a 3 KDa centrifugal filter device (Amicon Ultra-0.5 Centrifugal filter devices, Millipore, USA) and centrifuged at 14,000×g for 15 minutes. The fluorescent dye-conjugated transporter peptide was diluted with 1×PBS to a final volume of 0.2 mL.
BALB/c mice (BioLASCO Taiwan Co., Ltd, Taipei, Taiwan) at the age of 7-8 weeks were divided into a control group (n=1) and a test group (n=3). The mouse in the control group was administered 50 μL of fluorescent dye via tail vein injection. Mice in the group were administered 50 μL of the transporter peptide conjugated with fluorescent dye obtained above via tail vein injection. Mice were photographed using an optical imaging system (U-OI, MlLabs, Netherlands) at 0.5, 1, 2, 4, 6 and 24 hours after the injection for IVIS imaging analysis, with the excitation wavelength of 631 nm, the emission wavelength of 710 nm, and 10-second exposure time. Fluorescence signals of mouse brains were further quantified.

Caco-2 cell monolayer = conditions: PT-034 on top of monolayer, 37° C.
Protocol: In this example, the transport efficiency of the transporter peptide disclosed herein to the Caco-2 cell monolayer was tested to analyze the penetration effect of the transporter peptide on the tissue barrier, and to analyze the ability of the transporter peptide to induce transcytosis of the cell.
Caco-2 cells were plated at 2×10^4 cells/cm^2 on 24-transwell inserts (BD Falcon, 353495) in DMEM medium with 10% FBS and cultured for 21 days to form a monolayer. Monolayers were then confirmed by transepithelial electrical resistance (TEER), and the monolayers which have at least 500-600 Ω cm^2 of TEER were qualified monolayers for the following transcytosis experiment.
HPLC was conducted by using a Water ACQUITY Arc system. The chromatographic separation was performed on a C18 column (Waters XSelect HSS T3 […], 4.6 mm×250 mm). Column temperature was maintained and operated at 40° C. The mobile phase consisted of A-0.1% trifluoroacetic acid in water and B-100% methanol. Separation was performed according to the following gradient program: 0 min-10% B, 6 min-30% B, 12 min-50% B, 18 min-90% B, 23 min-10% B. The flow rate of the mobile phase was at 1 mL/min, the injection volume of the sample was 20 μL, and the total run time was within 30 mins.
The caco-2 monolayers with TEER at 680 Ω cm^2 were equilibrated in DMEM medium (serum free). […] of PT-034 (SEQ ID NO: 19) was applied to the top of Caco-2 monolayers at 37° C. Samples of both upper and lower solution were collected at 0, 0.25, 0.5, 1, 2, 6 hours. Peptides were purified from the sample solution by solid phase extraction (SPE) using C-18 tips (Cat. no. 87784, Pierce, Waltham, Massachusetts, USA). Each sample was supplemented with a final concentration of 11.43 μM PT-034 as internal control. 300 μL sample was absorbed by the C18 tip and eluted by 100 μL methanol. The sample was then subjected to HPLC analysis. The HPLC peak area was calculated at retention time of 16.9 minutes, and a standard curve was plotted for calculating the contents of the transporter peptide in the sample solutions.

[2] = 10 mg/kg tail vein injection
Protocol: Brain tissue was collected one hour after the injection and triturated in 1.3 mL of 50 mM sodium bicarbonate/bicarbonate buffer. The brain tissue grinding fluid was centrifuged at 3000 rpm for 5 minutes, the supernatant was taken and further centrifuged at 14000 rpm for 15 minutes. Zero-point-four (0.4) mL of ice-cold methanol was added to 0.1 mL of the brain tissue grinding supernatant. The mixture was shook for 10 minutes, and then centrifuge at 14,000 rpm for 15 minutes. The brain tissue supernatant was then subjected to HPLC analysis whose method is as described in Example 2. The HPLC peak area was calculated at the retention time of 16.9 minutes, and a standard curve was plotted to calculate the content of the transporter peptide in each sample.

[3] = 1 mg/kg dye-conjugated peptide, tail vein injection, 0.5, 1, 2, 4 and 6 hours after injection

SMILES: CC[C@H](C)[C@H](NC(=O)[C@@H](N)CC(=O)O)C(=O)N[C@@H](CO)C(=O)N[C@H](C(=O)N[C@@H](CC(C)C)C(=O)N[C@@H](CCSC)C(=O)N[C@@H](CCCCN)C(=O)N[C@@H](CCC(=O)O)C(=O)N[C@@H](Cc1ccc(O)cc1)C(=O)N[C@@H](CC(N)=O)C(=O)O)C(C)C [PT-031, DISVLMKEYN] (H-DISVLMKEYN-OH)
- distribution of fluorescent signal in mice (IVIS) [1, 3]: enriched in the brain and spine
- quantified fluorescence signal in mouse brain ([1]; 1 mg/kg, tail vein injection): high levels of fluorescent signals
- half-life ([1]; 1 mg/kg, tail vein injection): ~5 h

SMILES: CC[C@H](C)[C@H](NC(=O)[C@@H](N)CC(=O)O)C(=O)N[C@@H](CO)C(=O)N[C@H](C(=O)N[C@@H](CC(C)C)C(=O)N[C@@H](CC(=O)O)C(=O)N[C@@H](CCCCN)C(=O)N[C@@H](CCC(=O)O)C(=O)N[C@@H](Cc1ccc(O)cc1)C(=O)N[C@@H](CC(=O)O)C(=O)O)C(C)C [PT-025, DISVLDKEYD] (H-DISVLDKEYD-OH; N-terminus and C-terminus assumed)
- distribution of fluorescent signal in mice (IVIS) [1, 3]: enriched in the brain and spine
- quantified fluorescence signal in mouse brain ([1]; 1 mg/kg, tail vein injection): high levels of fluorescent signals
- half-life ([1]; 1 mg/kg, tail vein injection): ~5 h

SMILES: CC[C@H](C)[C@H](NC(=O)[C@@H](N)CC(=O)O)C(=O)N[C@@H](CO)C(=O)N[C@H](C(=O)N[C@@H](CC(C)C)C(=O)N[C@@H](CCSC)C(=O)N[C@@H](CCCCN)C(=O)N[C@@H](CCC(=O)O)C(=O)N[C@@H](Cc1ccc(O)cc1)C(=O)N[C@@H](CC(=O)O)C(=O)O)C(C)C [PT-001, DISVLMKEYD] (H-DISVLMKEYD-OH)
- distribution of fluorescent signal in mice (IVIS) [1, 3]: enriched in the brain and spine
- quantified fluorescence signal in mouse brain ([1]; 1 mg/kg, tail vein injection): high levels of fluorescent signals
- half-life ([1]; 1 mg/kg, tail vein injection): ~5 h

SMILES: CC[C@H](C)[C@H](NC(=O)[C@@H](N)CC(=O)O)C(=O)N[C@@H](CO)C(=O)N[C@H](C(=O)N[C@@H](CC(C)C)C(=O)N[C@@H](CCSC)C(=O)N[C@@H](CCCCN)C(=O)N[C@@H](CCC(=O)O)C(=O)N[C@@H](Cc1ccc(O)cc1)C(=O)N[C@@H](CCC(N)=O)C(=O)O)C(C)C [PT-034, DISVLMKEYQ]
- transporter peptide penetrated the Caco-2 cell monolayer (Caco-2 cell monolayer; 0.25 hours): about 8%
- transporter peptide penetrated the Caco-2 cell monolayer (Caco-2 cell monolayer; 1 hour): ~40%
- transporter peptide penetrated the Caco-2 cell monolayer (Caco-2 cell monolayer; 2 hours): ~42%
- transporter peptide penetrated the Caco-2 cell monolayer (Caco-2 cell monolayer; 6 hours): ~56%
- Content of the transporter peptid in the brain tissue ([2]; brain collected one hour after injection, individual mouse): 25.9 µg and 25.5 µg
- Injection dose/brain tissue weight ([2]; one hour after injection, individual mouse): 23.48% ID/g of brain and 22.09% ID/g of brain
- average transport efficiency to the brain ([2]; one hour after injection, mean of 2 mice): 22.79 % ID/g of brain
- distribution of fluorescent signal in mice (IVIS) ([1]; 10 mg/kg dye-conjugated peptide, tail vein injection, 1, 2, 4 and 6 hours after injection): enriched in the brain and spine
- quantified fluorescence signal in mouse brain compared with control group (Dye) ([1]; 10 mg/kg, tail vein injection, after 1 hour of the injection): high level of fluorescent signal
- half-life ([1]; 10 mg/kg, tail vein injection): ~5 h
